Legend:
recombinant hDOT1L = recombinant hDOT1L (Homo sapiens, UniProt Q8TEK3); assay: AlphaLISA DOT1L enzymatic inhibition assay on purified nucleosomes
Microsomal stability = assay type: in vitro ADME; conditions: mouse, liver microsomes
NOMO-1 cells (MLL-AF9) = assay: Cell proliferation, trypan blue counting; assay type: cell-based; conditions: Homo sapiens, 360 h; NOMO-1 (AF9), 15-day treatment; read-out: EC50 of the proliferation inhibition
Method: (§1) For assessment of cell proliferation and viability in human cell lines, exponentially growing cells were placed, in triplicate, in 96-well plates at a density of 35,000 cells/well at a final volume of 100 µL. […] The viable cell number was determined every 3–4 days for up to 15 days to 21 days using trypan blue counting using Cellometer Disposable Counting Chambers for the Cellometer Mini Automated Cell Counter.

KOPN8 cells (MLL-ENL) = assay: Cell proliferation, trypan blue counting; assay type: cell-based; conditions: Homo sapiens, KOPN-8, 360 h, 15-day treatment, read-out: EC50 of the proliferation inhibition
Method: as §1

MV4-11 cells (MLL-AF4) = assay: Cell proliferation and viability, trypan blue counting; assay type: cell-based, human
MV4-11 cells [1] = assay: Flow cytometry apoptosis analysis (Annexin V-APC/7-AAD); assay type: cell-based, human; conditions: MV4-11
Method: (§2) A decrease in the S phase of the cell cycle was also observed from 24% (day 8) to 20% (day 10), 13% (day 12).
(§3) In a 12-well plate, 2 mL exponentially growing MV4-11 cells were plated with a density of 2 × 10^5 cells/mL. […] Culture media and drugs were replaced every 2–3 days and cells were split back to a density of 2 × 10^5 cells/mL at the same time. Cells were harvested on days 8, 10, 12 and split to allow the analysis of cell cycle and Annexin V staining simultaneously. The apoptosis ratio was detected by an Annexin V-APC/7-AAD double staining assay (SONY 3804610) and cells were prepared according to the manufacturer’s recommendations. Cells for the cell cycle analysis were collected by centrifugation at 500× g for 5 min at 4 °C. The pellets were washed once with cold PBS and then fixed with 70% ethanol on ice for 30 min. Afterwards, the cells were washed once with cold PBS and stained with propidium iodide (Invitrogen P3566) for 30 min at 37 °C. Samples were measured using an Attune NxT acoustic focusing cytometer (Life Technologies), data were analyzed by FlowJo.

MOLM-13 cells (MLL-AF9) = assay: Cell proliferation, trypan blue counting; assay type: cell-based; conditions: Homo sapiens, 360 h; MOLM-13 (AF9), 15-day treatment; read-out: EC50 of the proliferation inhibition
H3K79me2 in MV4-11 cells = assay: Western blot of H3K79me2 normalized to total H3; assay type: cell-based, human; conditions: MV4-11, 4 days, increasing concentrations
Method: Next, we evaluated the effect on the demethylation of H3K79 in MLL-AF9 MOLM13 cells (Figure 7B).
The non-adherent cell lines MV4-11, MOLM-13, and KOPN8 exponentially growing cells were plated in 12-well plates (1 plate for each experiment) at a rate of 500,000 cells per well at a final volume of 2 mL. The cells were incubated in the presence of increasing inhibitor concentrations (0.1, 0.32, 1, 3.2, 10 µM). The cells (1 to 2 million) were harvested at the time chosen according to the line in order to extract the histones and the RNAs.
For the isolation of histones from cells, 1 to 2 million cells were collected, after exposure to the chosen treatment, by centrifugation at 200× g and lysed by 5 min of incubation on ice in 250 μL of the nuclear extraction buffer (10 mM Tris-HCl, 10 mM MgCl2, 25 mM KCl, 1% Triton X-100, 8.6% sucrose, Roche Protease inhibitor tablet 1836145). The nuclei were collected by centrifugation at 600× g for 5 min at 4 °C. The supernatant was removed and the histones were extracted for 1 h with 0.4 N cold sulfuric acid. The extracts were clarified by centrifugation at 10,000× g for 10 min at 4 °C and transferred to a microcentrifuge tube containing a 10× volume of ice-cold acetone. The histones were precipitated at ‒20 °C overnight and recovered by centrifugation at 1500× g for 10 min in the form of a pellet and then resuspended in 80 μL of water. Histones were quantified by absorbance measured by a nanodrop at 276 nm.
After extraction, the histones (500ng) were separated on 4–20% Tris-Glycine gels (Invitrogen) and transferred onto a nitrocellulose membrane ([…]) using the iBlot® Gel Transfer Stacks Nitrocellulose kit Mini (Invitrogen). After blocking nonspecific sites for 1 h at room temperature in a solution of 1X TBS at 5% milk, the membrane was incubated with rabbit anti-H3K79me2 (ab3594, 1/1000) or anti-H3 (ab1791)1/1000) overnight at 4 °C or 1 h at RT. The membrane was then washed three times for 5 min in a 1X TBS solution containing 0.05% Tween20 and was then incubated with an HRP anti-rabbit secondary antibody (NA934V, 1/10,000) for 1 h at RT. […]

MV4-11 cells [2] = assay: Flow cytometry cell cycle analysis (propidium iodide); assay type: cell-based, human; conditions: MV4-11, 1 µM
Method: as §2, §3

Chain of recombinant hDOT1L (Q8TEK3 1-416): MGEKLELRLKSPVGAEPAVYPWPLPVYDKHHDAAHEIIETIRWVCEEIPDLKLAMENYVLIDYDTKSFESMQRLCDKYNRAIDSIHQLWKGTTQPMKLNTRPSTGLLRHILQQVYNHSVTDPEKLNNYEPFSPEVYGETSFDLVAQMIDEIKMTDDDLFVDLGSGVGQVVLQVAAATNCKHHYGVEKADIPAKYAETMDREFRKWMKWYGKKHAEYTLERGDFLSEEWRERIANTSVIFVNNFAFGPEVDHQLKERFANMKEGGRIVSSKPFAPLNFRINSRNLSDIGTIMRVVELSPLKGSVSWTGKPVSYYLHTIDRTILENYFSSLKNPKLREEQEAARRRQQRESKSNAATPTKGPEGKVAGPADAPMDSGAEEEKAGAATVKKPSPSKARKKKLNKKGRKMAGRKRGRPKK

Structure (SMILES) | IC50 (recombinant hDOT1L) | half-life (Microsomal stability) | EC50 (NOMO-1 cells (MLL-AF9)) | EC50 (KOPN8 cells (MLL-ENL)) | EC50 (MV4-11 cells (MLL-AF4); Homo sapiens, 360 h, MV4-11 (AF4), 15-day treatment, read-out: EC50 of the proliferation inhibition) | effect on cell viability / proliferation (MV4-11 cells (MLL-AF4); MV4-11, after 8 days of treatment) | effect on apoptosis (MV4-11 cells [1]) | EC50 (MOLM-13 cells (MLL-AF9)) | H3K79me2 methylation compared to DMSO treated cells (H3K79me2 in MV4-11 cells) | effect on the cell cycle (MV4-11 cells [2])
CC(C)[C@@H](CCCNC(=O)Nc1ccc(C(C)(C)C)cc1)N[C@H]1C[C@@H](n2cnc3c(N)ncnc32)[C@H](O)[C@@H]1O [Dia1, 1-((R)-4-(((1S,2R,3S,4R)-4-(6-amino-9H-purin-9-yl)-2,3-dihydroxycyclopentyl)amino)-5-methylhexyl)-3-(4-(tert-butyl)phenyl)urea] | 316 nM |  |  |  |  |  |  |  |  | 
CC(C)N(CCCNC(=O)Nc1ccc(C(C)(C)C)cc1)C[C@H]1O[C@@H](n2ccc3c(N)ncnc32)[C@H](O)[C@@H]1O [EPZ-4777, reference compound] |  | 5.3 min |  |  |  |  |  |  |  | 
CC(C)N(C[C@H]1O[C@@H](n2cnc3c(N)ncnc32)[C@H](O)[C@@H]1O)[C@H]1C[C@@H](CCc2nc3cc(C(C)(C)C)ccc3[nH]2)C1 [EPZ-5676, reference compound] |  | 5.7 min | 562 ± 15 nM | 86 ± 4 nM | 21 ± 1 nM | cell viability decreased by half | increase in apoptosis | 92 ± 2 nM | efficient decrease in methylation | increase in cells in subG1

Reference: publication PMC8434109, “Synthesis and Biological Activity of a Cytostatic Inhibitor of MLLr Leukemia Targeting the DOT1L Protein” (Molecules, 2021)
